Laboratory results from US7135489B2, “Crystalline form of 4-[5-methyl-3-phenylisoxazol-4-yl] benzenesulfonamide” (G. D. Searle & Co., priority 1996, dated 2006).

Experiments:
Format in all cases: physicochemical
[1] = Stability after mechanical grinding (milling)
[2] = Thermal stability of crystal form
Procedure: Melting points were performed either on a Thomas Hoover melting point apparatus or a Mettler FP900 Thermosystem melting point apparatus. Melting ranges were determined by differential scanning calorimetry on a TA Instruments Differential Scanning Calorimeter (Model 2100 controller, Model 912 dual calorimeter). The sample (1-2 mg) was placed in an unsealed aluminum pan and heated at 10° C./minute.

[3] = Stability of crystalline form compared with the earlier form; conditions: compared with earlier material Form A

Row | SMILES | stability after mechanical grinding (milling) [1] | thermal stability [2] | stability relative to Form A [3]
1 | Cc1onc(-c2ccccc2)c1-c1ccc(S(N)(=O)=O)cc1 [Form A, 4-[5-methyl-3-phenylisoxazol-4-yl]benzenesulfonamide] | unstable | thermally unstable | 
2 | Cc1onc(-c2ccccc2)c1-c1ccc(S(N)(=O)=O)cc1 [Form B, 4-[5-methyl-3-phenylisoxazol-4-yl]benzenesulfonamide] |  |  | more stable
